The test system of one data set is L. major promastigotes. Further details: method as in PMID 21267500. The following applies: cited from earlier work.
For data set [1], the system named is L. donovani promastigotes. Description: Growth inhibition of L. donovani promastigotes (resazurin-based assay). Format: cell-based, Leishmania donovani. The following applies: Leishmania donovani, 72 h, incubation 3 days; for inhibition at 25 µM / inhibition at 50 µM: relative to control; for inhibition at 25 µM: read-out: % Inhibition at 25 µM concentration; for inhibition at 50 µM: read-out: % Inhibition at 50 µM concentration; for IC50: extracellular promastigotes, duplicates, read-out: IC50 ± SD, growth of L. donovani promastigotes. Here is the method:
Out of 20 known Leishmania species pathogenic to humans, L. donovani, which causes visceral leishmaniasis, is the most fatal. Consequently, an in vitro model of L. donovani promastigotes[26] was selected to evaluate the activity of the synthesised pyrrolidine-based 3-deoxysphingosylphosphorylcholine analogs 1e–i, 2a–f, 3a–f at two concentration (50 and 25 µM) employing miltefosine and erufosine (ErPC; erucylphosphocholine) as reference standards using a resazurin-based assay.
For comparison, erufosine and miltefosine were used as reference standards.
L. donovani MHOM/SD/62/1S-CL2D parasites were cultured as promastigotes at 28 °C in M199 medium (Sigma-Aldrich, St. Louis, MO, USA) with 40 mM HEPES, 0.1 mM adenine, 0.0001% biotin, and 4.62 mM NaHCO3 supplemented with 10% foetal bovine serum (FBS, Gibco, Carlsbad, CA, USA), […] penicillin (Gibco), and 100 µg/mL streptomycin (Gibco). Parasites were sub-cultured every 3 or 4 days and maintained for 10 passages.
The plates were analysed using a Victor3TM plate reader (PerkinElmer, Inc., Waltham, MA, USA) at 590 nm (emission) and 530 nm (excitation). Miltefosine and erufosine were used as the reference standards. All measured and calculated values are the averages of duplicates. The dose-response curves were generated by GraphPad Prism 6 software using a sigmoidal dose-response equation with a variable hill slope option.

A short description of data set [2]: Cytotoxicity against HEK293T cells (resazurin). Format: cell-based. The following applies: human, duplicates, read-out: HEK293T CC50 ± SD. The source says: As the extracellular promastigotes form represents the insect stage of the parasite, assessment of activity is needed to confirm activity against the intracellular amastigotes form, which is the human host form (mammalian host form). In addition, a preliminary assessment of selectivity and safety might be desirable to evaluate the quality of hit compounds. Accordingly, compound 1e and its enantiomer; 1a, in parallel with standard drugs miltefosine and erufosine were submitted for evaluation in intracellular amastigotes model using infected THP-1 cells; human monocytic cell line derived from an acute monocytic leukaemia. In addition, cytotoxicity of tested compounds and standards were evaluated against THP-1 cells and normal human embryonic kidney cells; HEK293T to evaluate selectivity and safety. Cytotoxicity against HEK293T cell growth was assayed by measuring the conversion of resazurin to resorufin. The assays were performed in 384-well plates that were seeded with HEK293T cells (1000 cells per well). After seeding, the cells were exposed to the compounds for 3 days. Resazurin sodium salt (200 µM; R7017; Sigma-Aldrich, St. Louis, MO, USA) was then added, and the samples were incubated for 5 h. After incubation, the […] were fixed using 4% paraformaldehyde, and the plates were analysed using a Victor3TM plate reader (PerkinElmer, Inc., Waltham, MA, USA) at 590 nm (emission) and 530 nm (excitation). Miltefosine and saponin were used as the reference drugs for the HEK293T growth inhibition.

For another data set, the system named is THP-1 cells. The experiment in a line: Cytotoxicity against THP-1 host cells. The data set is classed as cell-based, human. The following applies: CC50 THP-1 divided by IC50 intracellular L. donovani. The source says:
(§1) As the extracellular promastigotes form represents the insect stage of the parasite, assessment of activity is needed to confirm activity against the intracellular amastigotes form, which is the human host form (mammalian host form). In addition, a preliminary assessment of selectivity and safety might be desirable to evaluate the quality of hit compounds. Accordingly, compound 1e and its enantiomer; 1a, in parallel with standard drugs miltefosine and erufosine were submitted for evaluation in intracellular amastigotes model using infected THP-1 cells; human monocytic cell line derived from an acute monocytic leukaemia. In addition, cytotoxicity of tested compounds and standards were evaluated against THP-1 cells and normal human embryonic kidney cells; HEK293T to evaluate selectivity and safety. PMA-treated THP-1 human monocytic cells were seeded at 0.8 × 10^4 cells per well in a 384-well culture plate (Greiner Bio-One, Kremsmünster, Austria) in RPMI-1640 complete medium supplemented with 10% FBS. After 48 h of incubation at 37 °C in the presence of 5% CO2, infected THP-1 cells were treated with miltefosine (at 80 µM, positive control), and tested compounds (at 200 µM). The negative control consisted of THP-1 infected with the parasite with only 0.5% DMSO. After 72 h, the cells that were infected and treated with the drug were washed with serum-free RPMI-1640 medium. The cells and parasites were stained using 5 µM DAPI and 4% PFA. The images were acquired based on reading using an Operetta® automated microscope (PerkinElmer, Inc., Waltham, MA 02451, USA). They were further analysed using Columbus^TM (PerkinElmer, Inc. Waltham, MA, USA) software to quantify parasite numbers, and host cell numbers. In brief, large-sized nucleus of host cells was first detected using DAPI signal and the host cell boundary masking was performed using the low-intensity signals from cytosols. Then the small-sized nucleus signal by DAPI was used to identify parasites within the area of the masked host cell. The DRC results were further assessed in a dose-dilution manner (two-fold serial dilution for 10 points starting from 200 µM).

A short description of data set [3]: Cytotoxicity against THP-1 host cells. The following applies: human, PMA-treated THP-1 monocytic cells infected with the parasite; THP-1 cells, duplicates; read-out: THP-1 cell CC50 ± SD. Format: cell-based, human.
Source text: as §1

The test system of data set [4] is intracellular L. donovani amastigotes. Description: Intracellular L. donovani amastigotes in infected THP-1 cells (image-based). The following applies: Leishmania donovani, 72 h, duplicates, read-out: Intracellular L. donovani IC50 ± SD. Format: cell-based.
Source text: as §1

In data set [5] the test system is L. donovani promastigotes. Further details: method as in PMID 22506086. The following applies: literature value; read-out: Reported IC50 against L. donovani promastigotes; cited from earlier work.

Where two headings read alike, the source gives them in different places.

On to `CCCCCCCCCCCCC/C=C/C[C@@H](N)CO` [Compound 26an], for which the “Cytotoxicity against L. major promastigotes (in words)” value in the data set with L. major promastigotes is given as “significant cytotoxicity”.

As for `CCCCCCCC/C=C\CCCCCCCCCCCCOP(=O)([O-])OCC[N+](C)(C)C` [Erufosine, erucylphosphocholine, reference compound], the inhibition at 25 µM in data set [1] was found to be 106%. Further, the inhibition at 50 µM in data set [1] was determined as 108%. In addition, the IC50 in data set [1] was 9.75 ± 2.41 µM; in data set [4] it was 3.61 ± 1.05 µM; in data set [5], 13.3 µM. Besides, the CC50 at 3 days in data set [2] amounted to 40.8 ± 3.36 µM. For the same compound, the Selectivity index in the data set on THP-1 cells is on record as 1.1. For the same compound, the CC50 at 72 h in data set [3] was determined as 3.94 ± 1.02 µM.

As for `CCCCCCCCCCCCCCCCOP(=O)([O-])OCC[N+](C)(C)C` [Miltefosine, miltefosine, reference compound], the inhibition at 25 µM in data set [1] is 100%. Moreover, the inhibition at 50 µM in data set [1] was 100%. In addition, the IC50 in data set [1] is 4.94 ± 0.47 µM; in data set [4], 2.55 ± 0.63 µM; in data set [5], 3.1 µM. The CC50 at 3 days in data set [2] was greater than 200 µM. Besides, the Selectivity index with THP-1 cells stood at 16.0. The CC50 at 72 h in data set [3] turned out to be 40.8 ± 3.32 µM.
